Assay results taken from US10253007B2, “Taxanes compounds, preparation method therefor, and uses thereof” (Jiangsu Tasly Diyi Pharmaceutical Co., Ltd., priority 2013, dated 2019).
Entries after “also recorded” stand apart in the source; their conditions may differ. Where two headings read alike, the source gives them in different places.

Key:
[1] = MTT assay, proliferation inhibition; type: cell-based; conditions: Homo sapiens, LN-18 gastric cancer, read-out: Proliferation inhibition rate
Excerpt: (§1) 1. Cytotoxicity Assay Using Human Tumor Cell Lines
(§2) Paclitaxel was used as the positive drug.

A2780 ovarian cancer = test: MTT assay, proliferation inhibition; type: cell-based; conditions: Homo sapiens, read-out: Proliferation inhibition rate
Excerpt: as §1, §2

A375 melanoma = test: MTT assay, proliferation inhibition; type: cell-based; conditions: Homo sapiens, A-375, read-out: Proliferation inhibition rate
Excerpt: as §1, §2

[2] = system: A549 non-small cell lung cancer; test: MTT assay, proliferation inhibition; type: cell-based; conditions: Homo sapiens, read-out: Proliferation inhibition rate
Excerpt: as §1, §2

B16 melanoma = test: MTT assay, proliferation inhibition; type: cell-based; conditions: read-out: Proliferation inhibition rate
Excerpt: as §1, §2

BGC-823 gastric cancer = test: MTT assay, proliferation inhibition; type: cell-based; conditions: Homo sapiens, read-out: Proliferation inhibition rate
Excerpt: as §1, §2

DU145 prostate cancer = test: MTT assay, proliferation inhibition; type: cell-based; conditions: Homo sapiens, DU-145, read-out: Proliferation inhibition rate
Excerpt: as §1, §2

HCT 116 colon cancer = test: MTT assay, proliferation inhibition; type: cell-based; conditions: Homo sapiens, read-out: Proliferation inhibition rate
Excerpt: as §1, §2

HL60 leukemia = test: MTT assay, proliferation inhibition; type: cell-based; conditions: Homo sapiens, HL-60, read-out: Proliferation inhibition rate
Excerpt: as §1, §2

HeLa cervical cancer = test: MTT assay, proliferation inhibition; type: cell-based; conditions: Homo sapiens, read-out: Proliferation inhibition rate
Excerpt: as §1, §2

K562 leukemia = test: MTT assay, proliferation inhibition; type: cell-based; conditions: Homo sapiens, read-out: Proliferation inhibition rate
Excerpt: as §1, §2

LNCaP prostate cancer = test: MTT assay, proliferation inhibition; type: cell-based; conditions: Homo sapiens, read-out: Proliferation inhibition rate
Excerpt: as §1, §2

MCF-7 breast cancer = test: MTT assay, proliferation inhibition; type: cell-based; conditions: Homo sapiens, MCF7, read-out: Proliferation inhibition rate
Excerpt: as §1, §2

MDA-MB-436 breast cancer = test: MTT assay, proliferation inhibition; type: cell-based; conditions: Homo sapiens, read-out: Proliferation inhibition rate
Excerpt: as §1, §2

[3] = system: NCI-H460 non-small cell lung cancer; test: MTT assay, proliferation inhibition; type: cell-based; conditions: Homo sapiens, read-out: Proliferation inhibition rate
Excerpt: as §1, §2

[4] = In vivo oral bioavailability assay (pharmacokinetics); design: species or system S.D. rats; conditions: rat; for AUC(0-t): 0-24 hours; for MRT inf: read-out: MRT0-∞
Excerpt: 3. In Vivo Oral Bioavailability Assay
The compound PCMI-31 was synthesized and detected according to the methods provided in the present invention. The internal standard, paclitaxel, was purchased from China's National Institute for the Control of Pharmaceutical and Biological Products (NICPBP). Chromatography-grade acetonitrile was purchased from Sigma-Aldrich Inc. Tween 80 and ethyl acetate were purchased from Aladdin reagent Inc. Male S.D. rats were purchased from Beijing Weitonglihua Inc. and raised in animal house for two weeks.
200 mg of PCMI-31 was dissolved in 4 ml of a mixed solution of Tween 80 and anhydrous ethanol (1:1) to prepare a stock solution at 50 mg/ml and normal saline was added to adjust to a suitable concentration. 12 male S.D. rats (about 300 g of body weight) were taken and divided into two groups after overnight fasting. One group was treated with intravenous injection (5 mg/kg) and the other group was treated orally (60 mg/kg). Blood was sampled in the intravenous group at 0th min, 5th min, 10th min, 20th min, 40th min, 1st h, 2nd h, 4th h, 6th h, 8th h, 12th h, 24th h, while the oral group at 5th min, 15th min, 30th min, 45th min, 1st h, 2nd h, 4th h, 6th h, 8th h, 12th h, 24th h. After 10 min centrifugation of plasma at 4500 rpm, the upper serum was taken and transferred to the corresponding EP tube, placed in a −40° C. freezer for assay.
Agilent 1100 series configuration: Agilent G1313A HPLC autosampler device, 150 mm×2.1 mm C18 Thermo column (particle size 3 μm) reversed-phase column, detection wavelength at 230 nm, column temperature at 30° C., mobile phase of acetonitrile/water (7:3), a flow rate at 0.2 ml/min, injection volume of 20 μl. The mass spectrometry (MS) combined was Thermo Finnigan TSQ Quantum triple quadrupole configurated with electrospray ionization (ESI) in the positive ion mode. The parameters of MS analysis were as follows: spray chamber voltage, 4.0 kv; heated capillary temperature, 350° C.; protective gas (nitrogen); 20 psi; auxiliary gas (nitrogen): 5 psi; collision gas (argon); pressure: 1.5 mmTorr.; Collision energy: CA 17 eV; FA and IFA were 19 eV: IS was 15 eV.
Paclitaxel was selected as an internal standard with a retention time of 3.07 min. Retention time of PCMI-31 was 4.21 min. MS detection condition to PCMI-31 was set as follows: 915→634 m/z; paclitaxel as an internal standard. Detection conditions: 876→308m/z. The concentration range of the standard curve of PCMI-31 was 5-10,000 ng/ml (γ^2>0.99) and the minimum detection limit was 5 ng/ml.
100 μL of plasma samples were taken, into which 100 μL of the internal standard (paclitaxel, 500 ng/ml acetonitrile solution) was added, followed by addition of 3 ml of ethyl acetate after well homogenized via vortex, after 5 min shaking, centrifuging for 8 min at a rotating speed of 4500 rpm. The supernatant was transferred to a clean EP tube with nitrogen to blow to dry under heating condition. After reconstitution with 120 μl mobile phase (CH3CN/H2O=7:3), the solution was centrifuged at 12,000 rpm for 3 min, 100 μl of supernatant was taken and transferred to an autosampler vial. After LC-MS/MS detection, statistical data and pharmacokinetic parameters were processed by Xcallbur® (version 1.3) software (Thermo Finnigan).

[5] = Caco-2 cell monolayer membrane transport assay; conditions: human; for recovery: Caco-2, Recovery rate in mass
Excerpt: (§3) Caco-2 Cell Monolayer Membrane Transport Assay
(§4) Human-derived colorectal adenocarcinoma cell line Caco-2 cell monolayer model was used to study the bidirectional transport of the target compounds from the apical (AP) side to the basolateral (BL) side and from BL side to AP side. HPLC was used for quantitative analysis to calculate transport parameters, apparent permeability coefficient (Papp) and the efflux ratio.

Caco-2 cell monolayer = Caco-2 cell monolayer membrane transport assay; conditions: Caco-2 monolayer
Excerpt: as §3, §4

[6] = male, S.D., plasma, intravenous administration 5 mg/kg
[7] = male, S.D., plasma, oral administration 60 mg/kg

In the case of CO[C@H]1C(=O)[C@]2(C)[C@@H](OC(=O)N(C)C)C[C@H]3OC[C@@]3(OC(C)=O)[C@H]2[C@H](OC(=O)c2ccccc2)[C@]2(O)C[C@H](OC(=O)[C@H](O)[C@@H](NC(=O)OC(C)(C)C)c3ccccc3)C(C)=C1C2(C)C [PCMI-31], the inhibition at 1 µM [1] is reported as 95.6%, the inhibition at 1 µM (A2780 ovarian cancer) is reported as 95.6% and the inhibition at 1 µM (A375 melanoma) is reported as 88.4%. It also gave an inhibition at 1 µM [2] of 76%, an inhibition at 1 µM (B16 melanoma) of 81.8% and an inhibition at 1 µM (BGC-823 gastric cancer) of 96.2%. The inhibition at 1 µM (DU145 prostate cancer) was 85.8%, the inhibition at 1 µM (HCT 116 colon cancer) was 60.7% and the inhibition at 1 µM (HL60 leukemia) was 97.8%. The inhibition at 1 µM (HeLa cervical cancer) was 103%, the inhibition at 1 µM (K562 leukemia) was 93.2% and the inhibition at 1 µM (LNCaP prostate cancer) was 82.2%. The inhibition at 1 µM (MCF-7 breast cancer) was 90.8%, the inhibition at 1 µM (MDA-MB-436 breast cancer) was 86.3% and the inhibition at 1 µM [3] was 87.7%. It also gave a half-life ([4]; male, S.D., plasma, other: oral or intravenous administration, generally, oral or intravenous administration, read-out: half-life (converted)) of roughly 3 h, an AUC(0-t) ([4]; male, S.D., plasma, intravenous 5 mg/kg) of 3310 ± 1330 ng·h/mL and an AUC(0-inf) [4, 6] of 3320 ± 1330 ng·h/mL. For the same compound, the Cmax [4, 6] was 7990 ± 3470 ng/mL, the Tmax [4, 6] was 0 h and the MRT inf [4, 6] was 2.58 ± 0.87 h. The half-life ([4]; male, S.D., plasma, intravenous administration 5 mg/kg, read-out: t1/2 (converted)) was 3.21 ± 0.53 h, the AUC(0-t) ([4]; male, S.D., plasma, oral 60 mg/kg) was 4250 ± 2480 ng·h/mL and the AUC(0-inf) [4, 7] was 4270 ± 2490 ng·h/mL. It also gave a Cmax [4, 7] of 922 ± 561 ng/mL, a Tmax [4, 7] of 0.8 ± 0.2 h and an MRT inf [4, 7] of 4.33 ± 0.74 h. For the same compound, the half-life ([4]; male, S.D., plasma, oral administration 60 mg/kg, read-out: t1/2 (converted)) was 2.97 ± 0.55 h, the bioavailability ([4]; male, S.D., plasma, oral, 60 mg/kg, oral 60 mg/kg vs intravenous 5 mg/kg, read-out: F, absolute oral bioavailability) was 10.7% and the “F, absolute oral bioavailability” value ([4]; oral 60 mg/kg vs intravenous 5 mg/kg) was 10.71%. For the same compound, the Papp B→A ([5]; Caco-2) was 26 ×10⁻⁶ cm/s, the efflux ratio ([5]; Caco-2) was 1.73 and the Papp A→B ([5]; Caco-2, Papp A-B, Caco-2 cell line (21 days), bidirectional transport, Table 5) was 15 ×10⁻⁶ cm/s. For the same compound, the Papp A→B ([5]; Caco-2, Papp A-B, Mean, Caco-2, A-B, mean of two samples) was 10.6 ×10⁻⁶ cm/s, the Papp A→B ([5]; Caco-2, Papp A-B, Sample-01, Caco-2, A-B, Sample-01) was 11.2 ×10⁻⁶ cm/s and the Papp A→B ([5]; Caco-2, Papp A-B, Sample-02, Caco-2, A-B, Sample-02) was 9.91 ×10⁻⁶ cm/s. For the same compound, the Papp A→B ([5]; Caco-2, Papp A-to-B, Caco-2) was greater than 10 ×10⁻⁶ cm/s, the recovery ([5]; Mean, Caco-2, A-B, mean of two samples) was 86.8% and the recovery ([5]; Sample-01, Caco-2, A-B, Sample-01) was 83%. For the same compound, the recovery ([5]; Sample-02, Caco-2, A-B, Sample-02) was 90.6% and the “membrane permeability (in words)” value (Caco-2 cell monolayer) was “highly permeable substrates; also recorded: highest membrane permeability”.
